Laboratory results reported in paper PMC7643060, “Human perinatal stem cell derived extracellular matrix enables rapid maturation of hiPSC-CM structural and functional phenotypes” (Scientific Reports, 2020).

Experiments:
[1] = tested on: hiPSC-CM syncytia; test: Proarrhythmia screen in 96 well plates using CiPA compounds (voltage sensitive dye, optical mapping); assay type: cell-based, human; conditions: hiPSC-CM syncytia on Matrix Plus, 10 × ETPC, 30 min exposure
Description: MatrixPlus coated 6 or 96 well plates were stored at 4 °C, transferred to room temperature on the day of cell plating and rehydrated (30 min) in Hank’s Balanced Salt Solution (HBSS). HBSS was aspirated and hiPSC-CMs were plated essentially as before[17],[22]. Briefly, commercially available iCell[2] Cardiomyocytes (Cellular Dynamics International) were thawed at 37 °C for 4 min, diluted in 7 ml of EB20 medium supplemented with blebbistatin (DMEM:F12, 20%FBS, 0.1% glutamine, 0.2%NEAA, 25 µM blebbistatin) and centrifuged (1000 rpm for 5 min) for removal of cryoprotectants. All work with human pluripotent stem cell derived cardiomyocytes was performed with approval from the University of Michigan Human Pluripotent Stem Cell Research Oversight committee (HPSCRO). All methods with human samples were handled following NIH guidelines. Cells from a single vial were diluted in EB20 with blebbistatin ([…]) and split evenly for plating on Matrigel, CELLvo Matrix and MatrixPLUS. Total amount of cells per functional syncytia varied depending on plate format, six well plates received 150,000 cells in the center of 1 cm diameter of matrix; and 96 well plates received 75,000 cells per well. Lower density plating (25,000 cells per well) was also used to more clearly observe cellular shape. hiPSC-CMs were maintained in cardiomyocyte EB20 supplemented with blebbistatin for 2 days before culture in RPMI supplemented with B27 for another 5 days[1].
(§1) Proarrhythmia screening assay was performed using voltage sensitive dye (VSD, FluoVolt) and high speed CCD camera (200fps)[24]. […] Supplemental Tables 1–3 outline each drug tested, the CiPA risk classification, the concentrations used and the clinical recorded Cmax for each drug to provide clinical reference for drug concentrations. Cells were then submitted to optical mapping for detection of voltage changes recorded with the CCD camera via selection of appropriate light wavelength (filter 515 nm, green light, Chroma). Movies were analyzed with custom made analysis software (Scroll) for determination of action potential duration and conduction velocity as described before[22],[24],[25].
Supplemental tables 1-3 outline each drug tested, the CiPA risk classification, the concentrations used and the clinical recorded Cmax for each drug to provide clinical reference for drug concentrations. hiPSC-CM monolayers were then submitted to optical mapping for detection of membrane voltage changes recorded with the CCD camera via selection of appropriate light wavelength (filter 515 nm, green light, Chroma). Movies were analyzed with custom made analysis software (Scroll) for determination of action potential duration and conduction velocity where appropriate.

[2] = tested on: hiPSC-CM monolayers; assay type: cell-based, human
Description: HBSS was aspirated and hiPSC-CMs were plated essentially as before[17],[22]. Briefly, commercially available iCell[2] Cardiomyocytes (Cellular Dynamics International) were thawed at 37 °C for 4 min, diluted in 7 ml of EB20 medium supplemented with blebbistatin (DMEM:F12, 20%FBS, 0.1% glutamine, 0.2%NEAA, 25 µM blebbistatin) and centrifuged (1000 rpm for 5 min) for removal of cryoprotectants. All work with human pluripotent stem cell derived cardiomyocytes was performed with approval from the University of Michigan Human Pluripotent Stem Cell Research Oversight committee (HPSCRO). All methods with human samples were handled following NIH guidelines. […]
as §1

Structure (SMILES)	Wells with arrhythmias [1]	Appearance of arrhythmias of TdP [2]	Change of beat rate or conduction velocity [2]
CN(CCOc1ccc(NS(C)(=O)=O)cc1)CCc1ccc(NS(C)(=O)=O)cc1 [dofetilide]	83%		
COc1ccccc1OCC(O)CN1CCN(CC(=O)Nc2c(C)cccc2C)CC1 (stereo not drawn) [ranolazine]	did not detect any arrhythmias	did not observe appearance of arrhythmias of TdP	did not significantly alter beat rate or conduction velocity
CC(C)N(CCC(C(N)=O)(c1ccccc1)c1ccccn1)C(C)C (stereo not drawn) [disopyramide]	66%		
CC(C)COCC(CN(Cc1ccccc1)c1ccccc1)N1CCCC1 (stereo not drawn) [bepridil]	did not yield arrhythmic responses		
